Where two headings read alike, the source gives them in different places.
Target: T1, human hyaluronidase Hyal-1 (Homo sapiens, UniProt Q12794)
T1 construct: gene HYAL1
T1 sequence (Q12794 22-435): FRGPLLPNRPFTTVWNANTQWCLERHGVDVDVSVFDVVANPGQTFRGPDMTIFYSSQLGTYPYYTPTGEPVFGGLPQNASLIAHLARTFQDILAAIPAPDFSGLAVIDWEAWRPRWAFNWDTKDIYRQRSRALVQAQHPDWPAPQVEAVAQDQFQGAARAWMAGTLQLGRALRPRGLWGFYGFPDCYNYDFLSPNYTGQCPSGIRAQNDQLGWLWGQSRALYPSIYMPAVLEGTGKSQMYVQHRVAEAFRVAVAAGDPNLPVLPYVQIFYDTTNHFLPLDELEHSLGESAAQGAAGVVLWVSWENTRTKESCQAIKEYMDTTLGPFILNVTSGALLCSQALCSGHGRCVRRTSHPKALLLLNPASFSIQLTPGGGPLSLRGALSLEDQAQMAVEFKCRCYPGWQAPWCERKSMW
Experiment: whole-cell "stains-all" hyaluronidase activity assay with surface-displayed Hyal-1, dose-response
Type: cell-based

| Compound | IC50 (read-out: IC50 Value) | IC50 |
| --- | --- | --- |
| C[C@@H]1O[C@@H](O[C@H]2[C@H](OC(=O)[C@]34CCC(C)(C)C[C@H]3C3=CC[C@@H]5[C@@]6(C)CC[C@H](O[C@H]7O[C@H](C(=O)O)[C@@H](O)[C@H](O[C@@H]8OC[C@@H](O)[C@H](O)[C@H]8O)[C@H]7O[C@@H]7O[C@H](CO)[C@H](O)[C@H](O)[C@H]7O)[C@@](C)(C=O)[C@@H]6CC[C@@]5(C)[C@]3(C)CC4)O[C@H](C)[C@H](O[C@@H]3O[C@H](C)[C@@H](O)[C@H](O)[C@H]3O)[C@@H]2O)[C@H](O)[C@H](O)[C@H]1O[C@@H]1OC[C@@H](O)[C@H](O[C@@H]2OC[C@@H](O)[C@H](O)[C@H]2O)[C@H]1O [SA1641] | 296 µM | – |
| CC1(C)[C@@H](O[C@H]2O[C@H](C(=O)O)[C@@H](O)[C@H](O)[C@H]2O[C@@H]2O[C@H](C(=O)O)[C@@H](O)[C@H](O)[C@H]2O)CC[C@]2(C)[C@H]3C(=O)C=C4[C@@H]5C[C@@](C)(C(=O)O)CC[C@]5(C)CC[C@@]4(C)[C@]3(C)CC[C@@H]12 [glycyrrhizic acid] | – | 177 µM |
| gypsophila saponin 2 | 108 µM | – |
